The record followed here is ChEMBL document CHEMBL5528001, “Synthetic product-based approach toward potential antileishmanial drug development” (Eur J Med Chem, 2024).

As a reminder, the IC50 is the concentration at which inhibition is half-maximal. The term CC50 denotes the concentration that lowers cell viability or growth by half. The term EC50 denotes the concentration at which the effect is half-maximal.

One experiment relates to Leishmania braziliensis. Put plainly: Antileishmanial activity against Leishmania braziliensis MHOM/BR/75/M2903 strain promastigotes assessed as reduction in cell viability incubated for 48 hrs by MTT assay. As to conditions: MHOM/BR/75/M2903, 48 h. The format is functional, organism-based. A general note: Tetrazolium assays rely on reduction of a dye to a coloured formazan, in cell work by metabolically active cells.

The subject of experiment [1] is Leishmania donovani. Put plainly: Antileishmanial activity against Leishmania donovani promastigotes assessed as inhibition of parasite growth. It counts as functional, organism-based.
Experiment [2] deals with Leishmania major. Nature of the experiment: Antileishmanial activity against Leishmania major assessed as reduction in parasite growth. The format is functional, organism-based.
Experiment [3] has as its system Leishmania donovani. Put plainly: Antileishmanial activity against Leishmania donovani MHOM/IN/00/DEVI assessed as inhibition of parasite growth measured for 48 hrs by MTT assay. The format is functional, organism-based.
A further experiment has as its system HepG2. Nature of the experiment: Cytotoxicity against human HepG2 cells assessed as reduction in cell growth measured after 48 hrs by SRB assay. It counts as functional. On the technique in general: The SRB assay estimates cell density from bound dye.
Experiment [4] relates to Leishmania amazonensis. Put plainly: Antileishmanial activity against Leishmania amazonensis promastigotes assessed as inhibition of parasite growth. It counts as functional. More on the design: scale not given: the % may be the effect or the level left.
Experiment [5] deals with Leishmania infantum. Nature of the experiment: Antileishmanial activity against Leishmania infantum MHOM/BR/1972/BH46 amastigotes assessed as reduction in cell viability measured for 48 hrs by PI staining based flow cytometry analysis. It counts as functional, organism-based. The note with it: MHOM/BR/1972/BH46, 48 h.
Experiment [6] relates to Leishmania infantum. Put plainly: Antileishmanial activity against Leishmania infantum MHOM/BR/1972/BH46 promastigotes assessed as reduction in parasite viability measured for 48 hrs by PI staining based flow cytometry analysis. It counts as functional, organism-based. As to conditions: MHOM/BR/1972/BH46, 48 h. A general note: Flow cytometry measures light scatter and fluorescence of single cells or particles in a stream.

Experiment [7] has as its system Leishmania donovani. Put plainly: Antileishmanial activity against Leishmania donovani amastigotes infected in J774.A1 macrophage assessed as inhibition of parasite growth by luciferase assay. The format is functional, organism-based.
The test system of experiment [8] is Leishmania donovani. Nature of the experiment: Antileishmanial activity against Leishmania donovani amastigotes infected in human THP-1 cells assessed as inhibition of parasite infection incubated for 72 hrs by DAPI staining based assay. The note with it: THP-1, 72 h. The format is functional, organism-based.
Experiment [9] has as its system Leishmania major. Nature of the experiment: Antileishmanial activity against Leishmania major promastigotes assessed as reduction in parasite viability measured after 72 hrs by Giemsa-staining based microscopic analysis. It counts as functional, organism-based.
Experiment [10] relates to Leishmania donovani. Put plainly: Antileishmanial activity against Leishmania donovani MHOM/SD/62/1S-CL2D promastigotes assessed as reduction in parasite growth incubated for 24 hrs by resazurin dye based analysis. The format is functional, organism-based.
Experiment [11] concerns Leishmania donovani. Nature of the experiment: Antileishmanial activity against Leishmania donovani promastigotes assessed as parasite growth inhibition incubated for 72 hrs by alamar blue staining based assay. It counts as functional, organism-based.
Experiment [12] deals with Leishmania major. Nature of the experiment: Antileishmanial activity against Leishmania major amastigotes assessed as reduction in parasite growth incubated for 48 hrs by resazurin dye based analysis. The format is functional, organism-based.
Experiment [13] relates to Leishmania donovani. Nature of the experiment: Antileishmanial activity against Leishmania donovani promastigotes assessed as parasitic proliferation inhibition incubated for 3 days by resazurin dye based assay. It counts as functional, organism-based. As to conditions: Leishmania donovani, 72 h; read-out: IC50.
For another experiment, the system named is Leishmania aethiopica. Nature of the experiment: Antileishmanial activity against Leishmania aethiopica amastigotes assessed as inhibition of parasite growth measured after 24 hrs by Alamar blue based analysis. The format is functional, organism-based.
In experiment [14] the test system is Leishmania amazonensis. Nature of the experiment: Antileishmanial activity against Leishmania amazonensis IFLA/BR/1967/PH8 amastigotes infected in murine peritoneal macrophages incubated for 24 hrs by Giemsa staining based analysis. The format is functional, organism-based. The note with it: IFLA/BR/1967/PH8, 24 h.
The test system of experiment [15] is Leishmania infantum. Put plainly: Antileishmanial activity against Leishmania infantum promastigote assessed as reduction in parasite growth after 72 hrs by MTT assay. It counts as functional, organism-based.
The test system of a further experiment is J774.A1. Nature of the experiment: Cytotoxicity against mouse J774.A1 cells assessed as reduction in cell viability incubated for 72 hrs by MTT assay. The format is functional.
The subject of experiment [16] is Leishmania infantum. Nature of the experiment: Antileishmanial activity against Leishmania infantum MON-1 promastigotes assessed as reduction in parasite viability measured after 48 hrs by MTT assay. It counts as functional, organism-based. The note with it: MON-1, 48 h.

In brackets after ≈: the same amount, converted by molar mass.

In the case of `CC(C)=CC1=C(OC(=O)CCc2cn(-c3cccc(Cl)c3)nn2)C(=O)c2ccccc2C1=O`, in the experiment on Leishmania braziliensis, the IC50 was 16.7 µM. In the case of `CCCn1c(C)cc(O)c(C(=O)Nc2ccc(Br)cc2)c1=O`, the IC50 in the experiment on Leishmania donovani [1] was 55 µM. Still for that read-out and setting: in the case of `Cc1cc(O)c(C(=O)Nc2ccccc2)c(=O)n1Cc1cccc(Cl)c1Cl` it was 55 µM.

In the case of `Cc1nc2ccc(Cl)cn2c1C(=O)N1CCN(Cc2cn(-c3ccc(Br)cc3)nn2)CC1`, the half-inhibitory concentration (IC50) in the experiment with Leishmania major [2] was 15.1 µM. Same read-out and setting: for `Cc1nc2ccc(Cl)cn2c1C(=O)N1CCN(Cc2cn(-c3ccc(Cl)cc3)nn2)CC1` the value was 15.1 µM. For `C(=N/CCCN(c1ccncc1)c1ccncc1)/c1cc(-c2ccccc2)c2ccc3c(-c4ccccc4)cc(/C=N/CCCN(c4ccncc4)c4ccncc4)nc3c2n1`, the IC50 in the experiment with Leishmania donovani [3] came out at 2.52 µM. Moreover, in the experiment on HepG2, the CC50 worked out at 1.64 µM.

As for `O=C1NC(=S)N2CCCC12` (stereo unspecified), the Activity in the experiment with Leishmania amazonensis [4] came out at 20%. Take `CCCc1cc(OC)c2oc(=O)c(C(=O)c3ccc([N+](=O)[O-])cc3)cc2c1`: the figures for the half-maximal inhibitory concentration (IC50) with Leishmania infantum [5] and in the experiment on Leishmania infantum [6] were 6.8 µM and 12 µM, respectively. `C(=N/CCCN(N1CCCCC1)N1CCCCC1)/c1cc(-c2ccccc2)c2ccc3c(-c4ccccc4)cc(/C=N/CCCN(N4CCCCC4)N4CCCCC4)nc3c2n1`: in the experiment with Leishmania donovani [3], the IC50 was found to be 2.52 µM. Besides, the CC50 in the experiment on HepG2 was 1.64 µM.

As to `CCCC(=O)N1N=C(c2ccccc2)CC1c1cn(-c2ccc(Cl)cc2)nc1-c1ccccc1` (stereo unspecified), the IC50 amounted to 0.89 µM in the experiment on Leishmania donovani [7] and 1.45 µM with Leishmania donovani [8].

With `COC(=O)C1=C(C)NC(=S)NC1c1ccc(Cl)cc1` (stereo unspecified), the EC50 in the experiment on Leishmania major [9] was found to be 15.5 µM. For the compound `C(=N/CCCN(c1cccnc1)c1cccnc1)/c1cc(-c2ccccc2)c2ccc3c(-c4ccccc4)cc(/C=N/CCCN(c4cccnc4)c4cccnc4)nc3c2n1`, the IC50 with Leishmania donovani [3] was determined as 2.52 µM. In addition, in the experiment with HepG2, the CC50 is 1.64 µM. In the case of `CCCCCCCCCCCCCCCC(=O)CC(=O)N1CCC[C@@H]1COP(=O)([O-])OCC[N+](C)(C)C`, the 50% inhibitory concentration (IC50) in the experiment on Leishmania donovani [10] worked out at 28.3 µM.

Consider `COc1ccc2nc(C(=O)NCCCN(C)C)ccc2c1`, for which the IC50 with Leishmania donovani [11] was determined as 8 µM.

`CC(C)(C)c1ccc(COc2ccc(C(=O)N/N=C\c3ccc([N+](=O)[O-])o3)cc2)cc1`: the 50% inhibitory concentration (IC50) in the experiment on Leishmania major [12] is 0.19 µM. In the case of `CCc1ccc(-n2cc(CN3CCN(C(=O)c4c(C)nc5ccc(Cl)cn45)CC3)nn2)cc1`, the IC50 in the experiment on Leishmania major [2] worked out at 15.1 µM. With `CC(=O)N1N=C(c2ccccc2)CC1c1cn(-c2ccc(C)cc2)nc1-c1ccccc1` (stereo unspecified), the IC50 in the experiment with Leishmania donovani [7] was 0.05 µM; in the experiment on Leishmania donovani [8] it was 1 µM. `COc1ccc(Cn2c(C)cc(O)c(C(=O)Nc3ccc(C)cc3)c2=O)cc1`: the IC50 in the experiment with Leishmania donovani [1] was 55 µM. Take `CC(C)c1ccc(COc2ccc(C(=O)N/N=C\c3ccc([N+](=O)[O-])o3)cc2)cc1`: the IC50 in the experiment on Leishmania major [12] came to 0.62 µM. For `COc1ccc(-n2cc(CCC(=O)OC3=C(C=C(C)C)C(=O)c4ccccc4C3=O)nn2)cc1`, the IC50 in the experiment on Leishmania braziliensis turned out to be 15.9 µM. In the case of `CCOC(=O)C1=CNC(=O)NC1c1ccc(C)cc1` (stereo in doubt; 80), the IC50 with Leishmania donovani [13] is 29.3 µg/mL (≈ 113 µM). Regarding `Cc1ccc2nc(C)c(C(=O)N3CCN(Cc4cn(-c5ccc(C(C)(C)C)cc5)nn4)CC3)n2c1`, the IC50 in the experiment on Leishmania major [2] turned out to be 15.1 µM. Take `c1ccc(-c2nn(-c3ccccc3)cc2C2=NCCS2)cc1`: the concentration for half-maximal inhibition (IC50) with Leishmania aethiopica is 1.02 µg/mL (≈ 3.34 µM). With `O=C(CC[Se]c1ccnc2cc(Cl)ccc12)Nc1ccc([N+](=O)[O-])cc1`, the IC50 in the experiment with Leishmania amazonensis [14] stood at 5.67 µM. On to `CCCCCCCCCn1cc(CN2CCN(C(=O)c3c(C)nc4ccc(C)cn34)CC2)nn1`, for which the IC50 with Leishmania major [2] was 15.1 µM.

As to `O=C(c1ccccc1)N1N=C(c2ccccc2)CC1c1cn(-c2ccc(Cl)cc2)nc1-c1ccccc1` (stereo unspecified), the IC50 in the experiment with Leishmania donovani [7] is 0.08 µM; with Leishmania donovani [8], 0.87 µM. `CC1(C)CC(=O)c2cc(CNC(=O)CCCCCCCCBr)ccc2S1`: the IC50 with Leishmania infantum [15] is 7.2 µM. Also, the CC50 in the experiment with J774.A1 is 58 µM.

In the case of `CCOC(=O)c1cc2c([nH]c3ccccc32)c(-c2ccccn2)n1`, in the experiment with Leishmania infantum [16], the concentration giving a half-maximal response (EC50) is more than 29.8 µM.
